The target of one data set is SOS1-KRAS (Homo sapiens, UniProt Q07889). Briefly: Inhibition of SOS1/KRAS G12C mutant (unknown origin). The format is protein-complex assay.
Data set [1] deals with NCI-H358. Briefly: Antiproliferative activity against human NCI-H358 cells assessed as inhibition of cell proliferation incubated for 7 days by celltiter-glo 3D assay. The format is functional, cell-based. The note with it: NCI-H358, 168 h. For orientation: In ATP-based viability assays light output follows the ATP content of the culture.
Data set [2] concerns NCI-H358. Briefly: Antiproliferative activity against human NCI-H358 cells assessed as reduction in cell viability.
In data set [3] the test system is NCI-H358. Nature of the data set: Antiproliferative activity against human NCI-H358 cells harboring G12C mutant assessed as inhibition of cell proliferation incubated for 7 days by celltiter-glo 3D assay. The settings on record: NCI-H358, 168 h. The format is functional, cell-based.
The nature of data set [4]: Antiproliferative activity against human GP2d cells harboring G12D mutant assessed as inhibition of cell proliferation incubated for 7 days by celltiter-glo 3D assay. The format is functional, cell-based. The settings on record: 168 h.
Another data set relates to NCI-H441. Nature of the data set: Antiproliferative activity against human NCI-H441 cells harboring G12V mutant assessed as inhibition of cell proliferation incubated for 7 days by celltiter-glo 3D assay. The format is functional, cell-based. The settings on record: NCI-H441, 168 h.
In a further data set the test system is DLD-1. Briefly: Antiproliferative activity against human DLD-1 cells harboring G13D mutant assessed as inhibition of cell proliferation incubated for 7 days by celltiter-glo 3D assay. The settings on record: DLD-1, 168 h. The format is functional, cell-based.
Data set [5] deals with NCI-H358. Briefly: Antitumor activity against human NCI-H358 cells xenografted in BALB/c nude mouse assessed as tumor growth inhibition at 30 mg/kg, ip measured twice daily for 21 days. The data set is classed as functional. The settings on record: NCI-H358, 504 h, time 21 day, read-out: TGI. Background: Xenograft models place foreign cells or tissue in a host animal.
The nature of data set [6]: Toxicity in BALB/c nude mouse xenografted with human NCI-H358 cells assessed as body weight loss at 30 mg/kg, ip measured every 3 days for 21 days. The format is organism-based. The note with it: in vivo, 504 h, time 21 day.
Data set [7] concerns the target T1, Protein cereblon/Son of sevenless homolog 1 (Homo sapiens, UniProt Q07889+Q96SW2). Briefly: PROTAC activity at CRBN/SOS1 in human NCI-H358 cells assessed as induction of SOS1 degradation incubated for 6 hrs by Western blotting analysis. The format is cell-based. The settings on record: read-out: DC50. In general terms: Immunoblotting shows a protein as a band on a membrane.
Target sequence in this assay (Q07889 whole entry): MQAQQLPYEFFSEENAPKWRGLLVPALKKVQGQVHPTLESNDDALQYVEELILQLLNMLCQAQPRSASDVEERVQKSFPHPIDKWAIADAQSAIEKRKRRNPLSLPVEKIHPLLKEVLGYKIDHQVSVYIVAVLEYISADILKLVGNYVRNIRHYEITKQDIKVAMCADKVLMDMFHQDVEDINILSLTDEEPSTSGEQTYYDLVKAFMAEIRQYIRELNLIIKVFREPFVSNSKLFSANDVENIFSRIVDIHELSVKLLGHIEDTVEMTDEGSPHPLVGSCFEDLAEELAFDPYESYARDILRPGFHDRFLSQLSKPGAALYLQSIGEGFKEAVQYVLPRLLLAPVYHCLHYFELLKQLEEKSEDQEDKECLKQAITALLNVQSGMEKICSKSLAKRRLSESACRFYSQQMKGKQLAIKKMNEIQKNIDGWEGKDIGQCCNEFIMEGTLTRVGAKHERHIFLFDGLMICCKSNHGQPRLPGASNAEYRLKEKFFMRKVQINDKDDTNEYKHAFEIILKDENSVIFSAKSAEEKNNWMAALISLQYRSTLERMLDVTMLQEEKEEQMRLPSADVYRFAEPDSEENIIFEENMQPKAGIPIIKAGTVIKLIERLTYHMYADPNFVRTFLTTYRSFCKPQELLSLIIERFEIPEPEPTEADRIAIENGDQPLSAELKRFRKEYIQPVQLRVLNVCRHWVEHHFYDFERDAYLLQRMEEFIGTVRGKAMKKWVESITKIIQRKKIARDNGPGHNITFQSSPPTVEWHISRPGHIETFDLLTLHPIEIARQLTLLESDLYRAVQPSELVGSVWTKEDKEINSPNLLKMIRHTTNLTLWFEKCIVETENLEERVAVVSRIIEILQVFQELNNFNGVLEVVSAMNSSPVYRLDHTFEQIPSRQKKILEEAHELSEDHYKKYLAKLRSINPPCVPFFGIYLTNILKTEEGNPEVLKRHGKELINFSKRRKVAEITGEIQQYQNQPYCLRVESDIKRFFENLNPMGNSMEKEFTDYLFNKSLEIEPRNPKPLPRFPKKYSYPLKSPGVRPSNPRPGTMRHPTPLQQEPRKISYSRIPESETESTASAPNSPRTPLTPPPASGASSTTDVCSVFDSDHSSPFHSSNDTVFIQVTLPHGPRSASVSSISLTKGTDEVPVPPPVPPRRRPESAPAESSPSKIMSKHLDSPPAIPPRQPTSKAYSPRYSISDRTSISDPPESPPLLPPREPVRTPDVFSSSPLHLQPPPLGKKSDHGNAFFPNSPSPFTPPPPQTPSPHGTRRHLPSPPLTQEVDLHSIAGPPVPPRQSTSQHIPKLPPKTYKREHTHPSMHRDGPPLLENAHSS
Target sequence in this assay (Q96SW2 whole entry): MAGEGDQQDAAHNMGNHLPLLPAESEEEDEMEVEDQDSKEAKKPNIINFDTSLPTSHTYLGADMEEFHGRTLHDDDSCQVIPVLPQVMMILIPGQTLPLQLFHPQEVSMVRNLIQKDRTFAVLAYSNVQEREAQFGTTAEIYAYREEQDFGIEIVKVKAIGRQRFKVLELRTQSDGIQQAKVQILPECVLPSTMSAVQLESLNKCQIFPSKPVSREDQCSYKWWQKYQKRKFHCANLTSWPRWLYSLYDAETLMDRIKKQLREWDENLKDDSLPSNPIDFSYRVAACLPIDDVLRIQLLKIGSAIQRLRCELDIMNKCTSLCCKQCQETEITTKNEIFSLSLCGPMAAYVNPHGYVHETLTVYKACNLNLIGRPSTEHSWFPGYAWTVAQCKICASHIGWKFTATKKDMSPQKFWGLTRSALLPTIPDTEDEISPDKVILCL

Data set [8] relates to NCI-H358. Briefly: Potency index, ratio of test compound IC50 to BI3406 IC50 for antiproliferative activity against human NCI-H358 cells assessed as inhibition of cell proliferation incubated for 7 days by celltiter-glo 3D assay. The note with it: time 7 day. The format is functional.
The target in data set [9] is T1, Protein cereblon/Son of sevenless homolog 1. Briefly: PROTAC activity at CRBN/SOS1 in human NCI-H358 cells assessed as induction of SOS1 degradation at 0.1 to 1 uM incubated for 6 hrs by Western blotting analysis. The format is cell-based. The settings on record: dose 0.1-1 µM.
Target sequence in this assay (Q07889 whole entry, looked up): as the sequence (Q07889 whole entry) above
Target sequence in this assay (Q96SW2 whole entry, looked up): as the sequence (Q96SW2 whole entry) above
Data set [10] shares this target. Briefly: PROTAC activity at CRBN/SOS1 in human NCI-H358 cells assessed as induction of SOS1 degradation at > 1 uM incubated for 6 hrs by Western blotting analysis. The data set is classed as cell-based.
Target sequence in this assay (Q07889 whole entry, looked up): as the sequence (Q07889 whole entry) above
Target sequence in this assay (Q96SW2 whole entry, looked up): as the sequence (Q96SW2 whole entry) above
Data set [11] can be described thus: Tmax in BALB/c nude mouse at 10 mg/kg, ip measured upto 24 hrs by LC-MS/MS analysis. The format is ADME, organism-based. The settings on record: in vivo.
Data set [12] can be described thus: AUC (0 to t) in BALB/c nude mouse at 10 mg/kg, ip measured upto 24 hrs by LC-MS/MS analysis. The format is ADME, organism-based. The settings on record: in vivo.
The nature of data set [13]: Cmax in BALB/c nude mouse at 10 mg/kg, ip measured upto 24 hrs by LC-MS/MS analysis. The format is ADME, organism-based. The note with it: in vivo.
Data set [14] in a line: AUC (0 to infinity) in BALB/c nude mouse at 10 mg/kg, ip measured upto 24 hrs by LC-MS/MS analysis. The format is ADME, organism-based. The settings on record: in vivo.
Data set [15] in a line: Half life in BALB/c nude mouse at 10 mg/kg, ip measured upto 24 hrs by LC-MS/MS analysis. The format is ADME, organism-based. The settings on record: in vivo.
Data set [16] has as its target Voltage-gated inwardly rectifying potassium channel KCNH2 (Homo sapiens, UniProt Q12809). Briefly: Inhibition of hERG at -80 mV holding potential by whole cell patch clamp recording assay. The data set is classed as toxicity.
The target in the next data set is Cytochrome P450 3A4 (Homo sapiens, UniProt P08684). Nature of the data set: Inhibition of CYP3A4 in human liver microsome preincubated with compound for 5 mins followed by NADPH addition and measured after 5 mins by LC-MS/MS analysis. The format is ADME, microsomes.

SMILES strings stand for the structures. pIC50: −log10 of the molar value. The source made the active and inactive calls. The rule behind the calls is not given here.

What is called pIC50 is the negative decadic logarithm of the IC50, by convention in mol/L. As a reminder, the DC50 is the concentration at which degradation of the target reaches its halfway point. One may read the Tmax as the time at which the peak concentration occurs. Usually AUC(0-t) stands for the area under the concentration-time curve up to a stated or last time point. Higher therefore signals more exposure. By Cmax is commonly meant the highest concentration seen after dosing. The term AUC(0-inf) denotes total exposure, with the tail of the curve extrapolated. Read a high AUC(0-inf) as high exposure. The term half-life denotes the time in which the quantity being followed falls by half. Higher therefore signals slow decline.

Voltage-gated inwardly rectifying potassium channel KCNH2, sequence (Q12809 whole entry): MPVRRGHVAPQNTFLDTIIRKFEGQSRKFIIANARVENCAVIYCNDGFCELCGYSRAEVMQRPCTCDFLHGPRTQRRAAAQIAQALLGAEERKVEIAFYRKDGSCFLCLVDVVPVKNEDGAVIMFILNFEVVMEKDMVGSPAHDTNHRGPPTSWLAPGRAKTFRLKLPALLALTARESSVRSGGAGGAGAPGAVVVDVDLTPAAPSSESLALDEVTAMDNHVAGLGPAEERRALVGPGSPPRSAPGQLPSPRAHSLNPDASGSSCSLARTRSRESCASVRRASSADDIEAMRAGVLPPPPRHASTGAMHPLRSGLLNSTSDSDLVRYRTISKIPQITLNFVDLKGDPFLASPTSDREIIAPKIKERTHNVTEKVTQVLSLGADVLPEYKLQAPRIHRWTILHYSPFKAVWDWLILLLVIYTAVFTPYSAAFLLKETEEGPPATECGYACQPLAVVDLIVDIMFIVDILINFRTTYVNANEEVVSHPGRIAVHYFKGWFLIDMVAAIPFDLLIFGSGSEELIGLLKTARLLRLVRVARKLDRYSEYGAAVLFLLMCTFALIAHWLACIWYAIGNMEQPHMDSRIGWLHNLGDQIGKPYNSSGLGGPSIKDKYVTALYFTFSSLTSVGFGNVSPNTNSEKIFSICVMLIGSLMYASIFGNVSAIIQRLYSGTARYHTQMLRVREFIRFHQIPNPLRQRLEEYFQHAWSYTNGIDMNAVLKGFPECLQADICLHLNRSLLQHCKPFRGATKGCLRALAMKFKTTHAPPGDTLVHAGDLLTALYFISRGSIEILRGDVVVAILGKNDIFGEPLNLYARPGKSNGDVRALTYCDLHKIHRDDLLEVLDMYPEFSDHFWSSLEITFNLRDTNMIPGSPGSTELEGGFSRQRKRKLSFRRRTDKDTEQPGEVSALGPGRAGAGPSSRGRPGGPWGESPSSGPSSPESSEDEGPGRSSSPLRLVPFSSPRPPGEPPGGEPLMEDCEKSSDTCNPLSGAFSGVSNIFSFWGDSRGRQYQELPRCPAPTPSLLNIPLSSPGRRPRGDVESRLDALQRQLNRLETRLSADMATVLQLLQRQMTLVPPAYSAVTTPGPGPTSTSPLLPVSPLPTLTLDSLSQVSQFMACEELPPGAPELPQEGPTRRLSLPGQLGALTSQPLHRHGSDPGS
Cytochrome P450 3A4, sequence (P08684 whole entry): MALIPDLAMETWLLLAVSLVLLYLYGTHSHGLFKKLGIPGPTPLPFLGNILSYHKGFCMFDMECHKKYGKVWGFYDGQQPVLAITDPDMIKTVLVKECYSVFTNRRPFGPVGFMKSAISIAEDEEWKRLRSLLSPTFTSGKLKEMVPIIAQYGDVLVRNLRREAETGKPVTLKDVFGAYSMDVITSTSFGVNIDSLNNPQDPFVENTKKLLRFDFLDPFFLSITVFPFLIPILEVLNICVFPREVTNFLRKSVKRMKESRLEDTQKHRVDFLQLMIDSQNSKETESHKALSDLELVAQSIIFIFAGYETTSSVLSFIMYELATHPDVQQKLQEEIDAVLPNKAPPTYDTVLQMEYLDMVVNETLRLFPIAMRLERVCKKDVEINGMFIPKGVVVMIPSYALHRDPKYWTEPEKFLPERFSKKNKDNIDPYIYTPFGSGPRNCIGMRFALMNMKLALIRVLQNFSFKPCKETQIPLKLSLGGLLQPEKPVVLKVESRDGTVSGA

With `CNCC1(COc2cc3c(N[C@H](C)c4cc(N)cc(C(F)(F)F)c4)nc(C)nc3cc2OC)CC1`, the negative logarithm of the IC50 (pIC50) was 8.00 on SOS1-KRAS and 6.99 in the data set on NCI-H358 [1].

Consider `COc1cc2nc(C)nc(N[C@H](C)c3cc(N)cc(C(F)(F)F)c3)c2cc1O[C@H]1CCOC1`, for which the negative logarithm of the IC50 (pIC50) with NCI-H358 [2] is 7.62; in the data set with NCI-H358 [1] it was 7.59; with NCI-H358 [3] it was 7.59; in data set [4] it was 7.77; in the data set on NCI-H441 it was 7.17; in the data set on DLD-1, 6.99. Moreover, the inhibition in vivo at 30 mg/kg in the data set on NCI-H358 [5] came to 39.4%. Further, the Activity entry in data set [6] is listed as “Non-Toxic”.

On to `COc1cc2nc(C)nc(N[C@H](C)c3cc(N)cc(C(F)(F)F)c3)c2cc1OCC1(CN(C)C(=O)CCCCCCNc2cccc3c2C(=O)N(C2CCC(=O)NC2=O)C3=O)CC1` (stereo not given in full), for which the pIC50 is 8.30 in the data set on NCI-H358 [1]; 8.30 in the data set with NCI-H358 [3]; 5.67 in data set [4]; 7.37 in the data set with NCI-H441; 7.20 with DLD-1; < 4.52 in data set [16]. In addition, the pIC50 at Cytochrome P450 3A4 was 6.49. Moreover, the DC50 in [7] amounted to 13 nM. Also, the “Ratio IC50” value with NCI-H358 [8] is on record as 5. In data set [9], the result was Active. Besides, in [10], the outcome was inactive. Also, the time of peak concentration (Tmax) in data set [11] turned out to be 1 h. The molecule further had an AUC(0-t) at 24 h in data set [12] of 4370 ng·h/mL. Further, in data set [13], the Cmax worked out at 1870 ng/mL. In [14], the area under the curve AUC(0-inf) turned out to be 4380 ng·h/mL. In addition, in [15], the half-life is 4.05 h. Moreover, the inhibition in vivo at 30 mg/kg in the data set on NCI-H358 [5] is 58.8%. Moreover, the Activity entry in data set [6] was “Non-Toxic”.

Regarding `COc1cc2nc(C)nc(N[C@H](C)c3cc(N)cc(C(F)(F)F)c3)c2cc1OCC1(CN(C)C(=O)C2CCN(C3CCC(Nc4cccc5c4C(=O)N(C4CCC(=O)NC4=O)C5=O)CC3)CC2)CC1` (stereo not given in full), the pIC50 in the data set with NCI-H358 [1] was 7.29. For the same molecule, the 50% degradation concentration (DC50) in [7] worked out at 55 nM.

Source of the values: ChEMBL document CHEMBL5537174, “Discovery of Potent SOS1 PROTACs with Effective Antitumor Activities against NCI-H358 Tumor Cells In Vitro/In Vivo” (J Med Chem, 2024).
